Laboratory results as given in patent US7345070B2, “Peroxisome proliferator activated receptor agonists” (Eli Lilly and Company, priority 2000, dated 2008).

Tests used:
[1] = system: huPPARα; test: Cotransfection assay in CV-1 cells, huPPARα; assay type: cell-based, human; conditions: GAL4 chimeric system, relative to PPARα agonist reference molecule
Procedure, shortened: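 Binding: SPA displacement of tritiated PPARα or PPARγ agonist, giving IC50. Cotransfection: CV-1 cells with CMV-driven PPAR and RXRα, luciferase reporter (AOX PPRE/TK or GAL4 chimera); efficacy relative to PPARα or PPARγ reference agonists, from curve fit or at 10 μM.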

[2] = molecular target: T1, huPPARα (Homo sapiens, UniProt Q07869); test: DNA-dependent binding (ABCD binding) using SPA technology, huPPARα; conditions: SPA displacement of tritium-labeled PPARα agonist radioligand
T1 sequence (Q07869 1-468): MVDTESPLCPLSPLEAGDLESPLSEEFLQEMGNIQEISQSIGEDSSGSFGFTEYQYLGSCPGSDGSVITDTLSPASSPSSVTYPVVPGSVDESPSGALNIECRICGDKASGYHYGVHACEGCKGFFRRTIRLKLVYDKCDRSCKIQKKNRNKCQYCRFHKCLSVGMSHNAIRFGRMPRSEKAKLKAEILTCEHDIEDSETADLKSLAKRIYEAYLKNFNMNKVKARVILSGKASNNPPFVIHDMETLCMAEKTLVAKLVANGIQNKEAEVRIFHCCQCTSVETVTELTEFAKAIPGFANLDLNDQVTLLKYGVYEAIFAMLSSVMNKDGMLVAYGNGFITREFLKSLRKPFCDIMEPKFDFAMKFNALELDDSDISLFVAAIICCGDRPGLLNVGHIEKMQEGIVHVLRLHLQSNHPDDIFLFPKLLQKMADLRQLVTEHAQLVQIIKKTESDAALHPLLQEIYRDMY
T1 sequence (P19793 1-462 partner): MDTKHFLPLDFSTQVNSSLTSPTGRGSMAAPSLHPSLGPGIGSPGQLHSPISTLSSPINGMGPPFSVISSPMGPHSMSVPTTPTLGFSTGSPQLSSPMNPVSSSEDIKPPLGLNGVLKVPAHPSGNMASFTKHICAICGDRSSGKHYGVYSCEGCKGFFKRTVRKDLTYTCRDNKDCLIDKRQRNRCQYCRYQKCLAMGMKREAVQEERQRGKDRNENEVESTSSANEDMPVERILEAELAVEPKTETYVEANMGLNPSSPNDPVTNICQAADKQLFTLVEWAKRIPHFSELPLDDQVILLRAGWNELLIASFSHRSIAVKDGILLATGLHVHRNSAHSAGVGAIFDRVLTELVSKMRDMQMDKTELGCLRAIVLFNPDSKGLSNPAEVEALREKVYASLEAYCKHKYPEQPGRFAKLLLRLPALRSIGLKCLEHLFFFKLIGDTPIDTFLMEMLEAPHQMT
Description: DNA-dependent binding (ABCD binding) was carried out using SPA technology with PPAR receptors. Tritium-labeled PPARα and PPARγ agonists were used as radioligands for generating displacement curves and IC50 values with compounds of the invention. Cotransfection assays were carried out in CV-1 cells. The reporter plasmid contained an acylCoA oxidase (AOX) PPRE and TK promoter upstream of the luciferase reporter cDNA. Appropriate PPARs and RXRα were constitutively expressed using plasmids containing the CMV promoter. […] In order to eliminate such interference, a GAL4 chimeric system was used in which the DNA binding domain of the transfected PPAR was replaced by that of GAL4, and the GAL4 response element was utilized in place of the AOX PPRE. Cotransfection efficacy was determined relative to PPARα agonist and PPARγ agonist reference molecules. Efficacies were determined by computer fit to a concentration-response curve, or in some cases at a single high concentration of agonist (10 μM). For binding or cotransfection studies with receptors other than PPARs, similar assays were carried out using appropriate ligands, receptors, reporter constructs, etc., for that particular receptor.
These studies were carried out to evaluate the ability of compounds of the invention to bind to and/or activate various nuclear transcription factors, particularly huPPARα (“hu” indicates “human”) and huPPARγ. These studies provide in vitro data concerning efficacy and selectivity of compounds of the invention. Furthermore, binding and cotransfection data for compounds of the invention were compared with corresponding data for marketed compounds that act on either huPPARα or huPPARγ.

| SMILES | huPPARα CTF Efficacy [1] | IC50 [2] |
| --- | --- | --- |
| Cc1oc(C2CCCCC2)nc1CCOc1ccc(CC(C)(Oc2ccc(F)c(F)c2)C(=O)O)cc1 (stereo not drawn) [Example 58, 3-{4-[2-(2-Cyclohexyl-5-methyl-oxazol-4-yl)-ethoxy]-phenyl}-2-(3,4-difluoro-phenoxy)-2-methyl-propionic acid] | 149% | 60 nM |
| Cc1ccc(OC(C)(Cc2ccc(OCCc3nc(C4CCCCC4)oc3C)cc2)C(=O)O)cc1 (stereo not drawn) [Example 41, 3-{4-[2-(2-Cyclohexyl-5-methyl-oxazol-4-yl)-ethoxy]-phenyl}-2-methyl-2-p-tolyloxy-propionic acid] | 49% | 66 nM |
| Cc1oc(-c2cccs2)nc1CCOc1ccc(CC(C)(Oc2ccc(F)cc2)C(=O)O)cc1 (stereo not drawn) [Example 64, 2-(4-Fluoro-phenoxy)-2-methyl-3-{4-[2-(5-methyl-2-thiophen-2-yl-oxazol-4-yl)-ethoxy]-phenyl}-propionic acid] | 50% | 67 nM |
| Cc1cccc(OC(C)(Cc2ccc(OCCc3nc(C4CCCCC4)oc3C)cc2)C(=O)O)c1 (stereo not drawn) [Example 62, 3-{4-[2-(2-Cyclohexyl-5-methyl-oxazol-4-yl)-ethoxy]-phenyl}-2-methyl-2-m-tolyloxy-propionic acid] | 101% | 58 nM |
| Cc1oc(-c2cccs2)nc1CCOc1ccc(CC(C)(Oc2cccc(C(F)(F)F)c2)C(=O)O)cc1 (stereo not drawn) [Example 71, 2-Methyl-3-{4-[2-(5-methyl-2-thiophen-2-yl-oxazol-4-yl)-ethoxy]-phenyl}-2-(3-trifluoromethyl-phenoxy)-propionic acid] | 142% | 78 nM |
| Cc1ccc(OC(C)(Cc2ccc(OCCc3nc(C4CCCCC4)oc3C)cc2)C(=O)O)cc1C (stereo not drawn) [Example 35, 3-{4-[2-(2-Cyclohexyl-5-methyl-oxazol-4-yl)-ethoxy]-phenyl}-2-(3,4-dimethyl-phenoxy)-2-methyl-propionic acid] | 78% | 66 nM |
| Cc1oc(-c2ccccc2)nc1CCCc1ccc(CC(C)(Oc2ccccc2)C(=O)O)s1 (stereo not drawn) [Example 91, 2-Methyl-3-{5-[3-(5-methyl-2-phenyl-oxazol-4-yl)-propyl]-thiophen-2-yl}-2-phenoxy-propionic acid] | 47% | 215 nM |
| Cc1oc(-c2cccs2)nc1CCOc1ccc(CC(C)(Oc2ccc(C(F)(F)F)cc2)C(=O)O)cc1 (stereo not drawn) [Example 51, 2-Methyl-3-{4-[2-(5-methyl-2-thiophen-2-yl-oxazol-4-yl)-ethoxy]-phenyl}-2-(4-trifluoromethyl-phenoxy)-propionic acid] | 152% | 64 nM |
| Cc1cccc(OC(C)(Cc2ccc(OCCc3nc(-c4cccs4)oc3C)cc2)C(=O)O)c1 (stereo not drawn) [Example 61, 2-Methyl-3-{4-[2-(5-methyl-2-thiophen-2-yl-oxazol-4-yl)-ethoxy]-phenyl}-2-m-tolyloxy-propionic acid] | 52% | 64 nM |
| Cc1oc(C2(C)CCCCC2)nc1CCOc1ccc(C[C@](C)(Oc2ccc(F)cc2)C(=O)O)cc1 [Example 67, (S)-2-(4-Fluoro-phenoxy)-2-methyl-3-(4-{2-[5-methyl-2-(1-methyl-cyclohexyl)-oxazol-4-yl]-ethoxy}-phenyl)-propionic acid] | 34% | 61 nM |
| Cc1oc(-c2cccc(Br)c2)nc1CCOc1ccc(CC(C)(Oc2ccccc2)C(=O)O)cc1 (stereo not drawn) [Example 8, 3-(4-{2-[2-(3-Bromophenyl)-5-methyloxazol-4-yl]ethoxy}phenyl)-2-methyl-2-phenoxypropionic acid] | 54% | 63 nM |
| Cc1ccc(OC(C)(Cc2ccc(OCCc3nc(-c4cccs4)oc3C)cc2)C(=O)O)cc1C (stereo not drawn) [Example 36, 2-(3,4-Dimethyl-phenoxy)-2-methyl-3-{4-[2-(5-methyl-2-thiophen-2-yl-oxazol-4-yl)-ethoxy]-phenyl}-propionic acid] | 70% | 72 nM |
| Cc1oc(C2(C)CCCCC2)nc1CCOc1ccc(CC(C)(Oc2ccccc2)C(=O)O)cc1 (stereo not drawn) [Example 9, 2-Methyl-3-(4-{2-[5-methyl-2-(1-methylcyclohexyl)oxazol-4-yl]ethoxy}phenyl)-2-phenoxypropionic acid] | 61% | 41 nM |
| Cc1oc(-c2cccs2)nc1CCOc1ccc(CC(C)(Oc2cccc(F)c2)C(=O)O)cc1 (stereo not drawn) [Example 22, 2-(3-Fluoro-phenoxy)-2-methyl-3-{4-[2-(5-methyl-2-thiophen-2-yl-oxazol-4-yl)-ethoxy]-phenyl}-propionic acid] | 51% | 70 nM |
| Cc1oc(C2CCCCC2)nc1CCOc1ccc(CC(C)(Oc2ccc(F)cc2)C(=O)O)cc1 (stereo not drawn) [Example 65, 3-{4-[2-(2-Cyclohexyl-5-methyl-oxazol-4-yl)-ethoxy]-phenyl}-2-(4-fluoro-phenoxy)-2-methyl-propionic acid] | 46% | 71 nM |
| Cc1oc(C2CCCCC2)nc1CCOc1ccc(CC(C)(Oc2ccc3c(c2)OCO3)C(=O)O)cc1 (stereo not drawn) [Example 80, 2-(Benzo[1,3]dioxol-5-yloxy)-3-{4-[2-(2-cyclohexyl-5-methyl-oxazol-4-yl)-ethoxy]-phenyl}-2-methyl-propionic acid] | 84% | 76 nM |
| Cc1oc(C2CCCCC2)nc1CCOc1ccc(CC(C)(Oc2ccc(C(C)(C)C)cc2)C(=O)O)cc1 (stereo not drawn) [Example 18, 2-Methyl-3-(4-{2-[5-methyl-2-cyclohexylyl-oxazol-4-yl]-ethoxy}-phenyl)-2-(4-tert-butylphenoxy)-propionic acid] | 102% | 72 nM |
| Cc1oc(-c2cccs2)nc1CCOc1ccc(CC(C)(Oc2ccccc2F)C(=O)O)cc1 (stereo not drawn) [Example 27, 2-(2-Fluoro-phenoxy)-2-methyl-3-{4-[2-(5-methyl-2-thiophen-2-yl-oxazol-4-yl)-ethoxy]-phenyl}-propionic acid] | 46% | 75 nM |
